In patent US12037324B2, “Biarylmethyl heterocycles” (Université de Montréal, priority 2016, dated 2024):

Legend:
hAT1R [1] = target: T1, hAT1R (Homo sapiens, UniProt P30556); assay: cell-based
T1 sequence (P30556 1-359): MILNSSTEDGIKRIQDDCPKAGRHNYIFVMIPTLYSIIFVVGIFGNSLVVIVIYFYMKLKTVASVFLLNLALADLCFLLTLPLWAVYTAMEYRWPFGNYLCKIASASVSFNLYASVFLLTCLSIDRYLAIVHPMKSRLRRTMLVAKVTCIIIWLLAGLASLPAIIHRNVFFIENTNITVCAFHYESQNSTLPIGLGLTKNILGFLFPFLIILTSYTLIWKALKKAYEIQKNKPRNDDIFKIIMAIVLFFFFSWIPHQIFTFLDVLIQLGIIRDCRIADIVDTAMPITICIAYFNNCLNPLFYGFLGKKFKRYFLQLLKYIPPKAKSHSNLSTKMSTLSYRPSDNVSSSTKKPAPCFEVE

hAT1R [2] = target: T1, hAT1R; assay: cell-based; conditions: agonist mode; for EC50: read-out: BRET P63 EC50
AGTR1 [3] = target: T2, AGTR1 (Homo sapiens, UniProt P30556); assay: DiscoveRx β-arrestin2 recruitment assay (enzyme complementation, Pathunter CHO-K1 AGTR1 β-arrestin cell line); assay type: cell-based; conditions: DiscoveRx β-arrestin2 recruitment; for DiscoveRx β-arrestin2 Ymax (%): maximal response
T2 construct: host or cells: Pathunter CHO-K1 AGTR1 β-arrestin cell line (CHO-K1)
T2 sequence (P30556 1-359): T1 sequence (P30556 1-359)
Procedure, shortened: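 Chemiluminescent enzyme-complementation read-out of β-arrestin2 recruitment to AGTR1 in engineered CHO-K1 cells after 90 min compound exposure at 37° C. Values are 4-parameter logistic EC50s in agonist mode, IC50s in antagonist mode, with efficacy relative to the maximal All response.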

hAT1R [4] = target: T1, hAT1R; assay: BRET β-arrestin2 biosensor assay, higher receptor expression (hAT1R 5 ng/well), HEK293 cells; assay type: cell-based; conditions: for EC50: High AT1R Expression
AGTR1 [5] = target: T2, AGTR1; assay: DiscoveRx IP1 accumulation assay (HTRF), agonist mode, Pathunter CHO-K1 AGTR1 β-arrestin cell line; assay type: cell-based; conditions: for EC50: read-out: IP-1 EC50
Procedure, shortened: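 Agonist mode in CHO-K1 AGTR1 β-arrestin cells plated 14-16 h before; compounds at varying concentrations for 90 min at 37° C, IP1 accumulation read by HTRF (D2-conjugate and anti-IP1 cryptate, 20 min room temperature). EC50 from 4-parameter logistic fit; activity given as percentage of maximal AII effect.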

[6] = section of the 42nd table ending at r951, example numbering restarts after the DiscoveRx section, read-out: β-arrestin2 EC50
[7] = Low AT1R Expression, read-out: BRET β-Arrestin2 Low AT1R Expression EC50

| SMILES | EC50 (hAT1R [1]; [6]) | BRET P63 Ymax (hAT1R [2]) | EC50 (hAT1R [2]) | BRET β-Arrestin2 Low AT1R Expression Ymax (%) (hAT1R [1]; Low AT1R Expression) | EC50 (hAT1R [1]; [7]) | EC50 (AGTR1 [3]) | DiscoveRx β-arrestin2 Ymax (%) (AGTR1 [3]) | BRET β-Arrestin2 High AT1R Expression Ymax (%) (hAT1R [4]) | EC50 (hAT1R [4]) | IP-1 Ymax (%) (AGTR1 [5]) | EC50 (AGTR1 [5]) |
| --- | --- | --- | --- | --- | --- | --- | --- | --- | --- | --- | --- |
| CCc1nc2c(C)cc(C)nc2n1Cc1ccc(-c2cc(-c3cn(CC(F)F)nn3)ccc2-c2nnn[nH]2)cc1 [Example 242] | 28.2 nM | 45.6% | 41.6 nM | – | – | – | – | – | – | – | – |
| CCOc1nc2cccc(C(=O)O)c2n1Cc1ccc(-c2cc(-n3cc(C(C)C)nn3)ccc2-c2nn[nH]n2)cc1 [Example 344] | 767 nM | 10.4% | 16.8 nM | – | – | – | – | – | – | – | – |
| CCc1nc2c(C)cc(C)nc2n1Cc1ccc(-c2cc(-c3cccc(OC)n3)ccc2-c2nn[nH]n2)cc1 [Example 29] | – | – | – | 42.2% | 18.9 nM | 8.6 nM | 29.8% | 82.7% | 11.3 nM | 12.1% | 38.7 nM |
| CCc1nc2c(C)cc(C)nc2n1Cc1ccc(-c2cc(-c3cccnc3OC)ccc2-c2nn[nH]n2)cc1 [Example 24, 2-ethyl-3-((5′-(2-methoxypyridin-3-yl)-2′-(2H-tetrazol-5-yl)-[1,1′-biphenyl]-4-yl)methyl)-5,7-dimethyl-3H-imidazo[4,5-b]pyridine] | – | – | – | 21.6% | 13.9 nM | 13.4 nM | 24.1% | 73.1% | 13.5 nM | 14.5% | 20.7 nM |
| CC1=NC2(CCOCC2)C(=O)N1Cc1ccc(-c2cc(-c3cc(C)ccn3)ccc2-c2nn[nH]n2)cc1 [Example 173, 2-methyl-3-((5′-(4-methylpyridin-2-yl)-2′-(2H-tetrazol-5-yl)-[1,1′-biphenyl]-4-yl)methyl)-8-oxa-1,3-diazaspiro[4.5]dec-1-en-4-one] | 80.4 nM | 19.3% | 79.1 nM | – | – | – | – | – | – | – | – |
| CCc1nc2c(C)cc(C)nc2n1Cc1ccc(-c2cc(-c3ncc(C)s3)ccc2-c2nn[nH]n2)cc1 [Example 68] | – | 41.7% | 15 nM | 91.1% | 15.3 nM | – | – | – | – | – | – |
| CCOc1nc2cccc(C(=O)O)c2n1Cc1ccc(-c2cc(-n3ncc4ccccc43)ccc2-c2nn[nH]n2)cc1 [Example 342] | 3.6 nM | 16.5% | 3.3 nM | – | – | – | – | – | – | – | – |
| CCc1nc2c(C)cc(C)nc2n1Cc1ccc(-c2cc(-c3ccccc3F)ccc2-c2nn[nH]n2)cc1 [Example 19] | – | – | – | 73.7% | 12.1 nM | 7.5 nM | 57.9% | 89.8% | 2.4 nM | 12.2% | 27.4 nM |
| CCc1nc2c(C)cc(C)nc2n1Cc1ccc(-c2cc(-c3cccc(C)c3)ccc2C(=O)O)cc1 [Example 182] | 26.3 nM | – | – | – | – | 84.9 nM | 74.2% | 90.4% | 7 nM | 6.6% | 132 nM |
| CCCCC1=NC2(CCOC2)C(=O)N1Cc1ccc(-c2cc(-c3ccccc3F)ccc2-c2nnn[nH]2)cc1 (single isomer, unassigned) [Example 148] | – | – | – | 17.7% | 141 nM | 103 nM | 34.8% | 72.8% | 90.4 nM | 6.1% | – |
| CCc1nc2c(C)cc(C)nc2n1Cc1ccc(-c2cc(-c3ccccc3C(C)C)ccc2-c2nn[nH]n2)cc1 [Example 3] | – | – | – | 30.6% | 24.2 nM | 21.2 nM | 22.9% | 79.6% | 14.9 nM | 29.9% | 45600 nM |
| CCCCC1=NC2(CCOC2)C(=O)N1Cc1ccc(-c2cc(-c3ccccc3F)ccc2-c2nnn[nH]2)cc1 (single isomer, unassigned) [Example 149] | – | – | – | 42.1% | 82.7 nM | 38.9 nM | 55.2% | 85.7% | 24.1 nM | 7.5% | 143 nM |
| CCc1nc2c(C)cc(C)nc2n1Cc1ccc(-c2cc(C(=O)c3ccccc3)ccc2-c2nnn[nH]2)cc1 [Example 210, (4′-((2-Ethyl-5,7-dimethyl-3H-imidazo[4,5-b]pyridin-3-yl)methyl)-6-(1H-tetrazol-5-yl)-[1,1′-biphenyl]-3-yl)(phenyl)methanone] | 28.4 nM | – | – | – | – | 8.6 nM | 48.4% | 88.2% | 9 nM | 14.8% | 82.7 nM |
| CCc1nc2c(C)cc(C)nc2n1Cc1ccc(-c2cc(-c3ccccc3)ccc2C(=O)O)cc1 [Example 31, 4″-((2-ethyl-5,7-dimethyl-3H-imidazo[4,5-b]pyridin-3-yl)methyl)-[1,1′:3′,1″-terphenyl]-4′-carboxylic acid] | – | – | – | 42.4% | 84.7 nM | 33.9 nM | 55.1% | 85.5% | 58.2 nM | 12.3% | 234 nM |
| CCCCC1=NC2(CCCC2)C(=O)N1Cc1ccc(-c2cc(-c3cncc(C)c3)ccc2-c2nn[nH]n2)cc1 [Example 129] | – | – | – | – | > 10000 nM | 33.5 nM | 12.9% | 40.7% | 240 nM | 2.0% | 119 nM |
| CCc1nc2c(C)cc(C)nc2n1Cc1ccc(-c2cc(-c3ccccc3OC(F)(F)F)ccc2-c2nn[nH]n2)cc1 [Example 1] | – | – | – | 61.8% | 29.5 nM | 15.5 nM | 44.1% | 86.9% | 7.2 nM | 18.7% | 20.7 nM |
| CCc1nc2c(C)cc(C)nc2n1Cc1ccc(-c2cc(Oc3cccnc3)ccc2-c2noc(=O)[nH]2)cc1 [Example 259] | 38.8 nM | – | – | – | – | 12.9 nM | 80.6% | 83.2% | 6.9 nM | 9.9% | 21.1 nM |
| CCCCC1=NC2(CCCC2)C(=O)N1Cc1ccc(-c2cc(-c3cccc(C)n3)ccc2-c2nn[nH]n2)cc1 [Example 138] | – | – | – | – | > 10000 nM | 13.4 nM | 27.9% | 73.2% | 56.9 nM | 6.3% | 54.1 nM |
| CCc1nc2c(C)cc(C)nc2n1Cc1ccc(-c2cc(-c3ccccc3OC)ccc2-c2nn[nH]n2)cc1 [Example 5] | – | – | – | 22.9% | 12.1 nM | 14.5 nM | 30.9% | 76.2% | 16 nM | 15.1% | 23.8 nM |
